Measurements taken from PubChem BioAssay AID248 (DTP/NCI, 2004).
Several values for one entry are separate records, joined by “and”; a condition that tells them apart may be missing. Identical values can stand only once. Toxic doses and inconclusive results are not listed. No stated cut-off is given here; in the data, active means T/C of 150% or more; inactive means T/C below 125%.

System: L1210 leukemia ip in BDF1 mice, survival T/C
Test: NCI In Vivo Anticancer Drug Screen. Data for tumor model L1210 Leukemia (intraperitoneal) in B6D2F1 (BDF1) mice
Details: endpoint: mean survival time, higher = longer survival
In short: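 In this screen, tumor-bearing mice given compound are compared to those given vehicle, and their survival values are reported as a treated-to-control quotient.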

[1] = dose: 25.0 mg/kg/injection, schedule: Q04DX003 (ip), vehicle: Klucel (hydroxypropylcellulose) (HPC)
[2] = dose: 50.0 mg/kg/injection, schedule: Q04DX003 (ip), vehicle: Klucel (hydroxypropylcellulose) (HPC)
[3] = dose: 100.0 mg/kg/injection, schedule: Q04DX003 (ip), vehicle: Klucel (hydroxypropylcellulose) (HPC)
[4] = dose: 100.0 mg/kg/injection, schedule: Q01DX001 (ip), vehicle: saline
[5] = dose: 200.0 mg/kg/injection, schedule: Q01DX001 (ip), vehicle: saline
[6] = dose: 400.0 mg/kg/injection, schedule: Q01DX001 (ip), vehicle: saline
[7] = dose: 100.0 mg/kg/injection, schedule: Q01DX009 (ip), vehicle: saline with Tween-80
[8] = dose: 200.0 mg/kg/injection, schedule: Q01DX009 (ip), vehicle: saline with Tween-80
[9] = dose: 200.0 mg/kg/injection, schedule: Q04DX003 (ip), vehicle: Klucel (hydroxypropylcellulose) (HPC)
[10] = dose: 400.0 mg/kg/injection, schedule: Q04DX003 (ip), vehicle: Klucel (hydroxypropylcellulose) (HPC)
[11] = dose: 100.0 mg/kg/injection, schedule: Q04DX003 (ip), vehicle: saline with Tween-80
[12] = dose: 200.0 mg/kg/injection, schedule: Q04DX003 (ip), vehicle: saline with Tween-80
[13] = dose: 400.0 mg/kg/injection, schedule: Q04DX003 (ip), vehicle: saline with Tween-80
[14] = dose: 50.0 mg/kg/injection, schedule: Q01DX001 (ip), vehicle: saline
[15] = dose: 100.0 mg/kg/injection, schedule: Q01DX009 (ip), vehicle: Klucel (hydroxypropylcellulose) (HPC)
[16] = dose: 200.0 mg/kg/injection, schedule: Q01DX009 (ip), vehicle: Klucel (hydroxypropylcellulose) (HPC)
[17] = dose: 400.0 mg/kg/injection, schedule: Q01DX009 (ip), vehicle: Klucel (hydroxypropylcellulose) (HPC)
[18] = dose: 100.0 mg/kg/injection, schedule: Q04DX002 (ip), vehicle: Klucel (hydroxypropylcellulose) (HPC)
[19] = dose: 200.0 mg/kg/injection, schedule: Q04DX002 (ip), vehicle: Klucel (hydroxypropylcellulose) (HPC)
[20] = dose: 400.0 mg/kg/injection, schedule: Q04DX002 (ip), vehicle: Klucel (hydroxypropylcellulose) (HPC)

Measured: T/C

CC(C)n1cnc2nc[nH]c2c1=S
inactive: dose: 25.0 mg/kg/injection, schedule: Q01DX001 (ip), vehicle: Klucel (hydroxypropylcellulose) (HPC) 91 % of control | [1] 95 % of control | dose: 50.0 mg/kg/injection, schedule: Q01DX001 (ip), vehicle: Klucel (hydroxypropylcellulose) (HPC) 95 % of control | [2] 102 % of control | dose: 100.0 mg/kg/injection, schedule: Q01DX001 (ip), vehicle: Klucel (hydroxypropylcellulose) (HPC) 98 % of control | [3] 92 % of control

CNc1nc(N)nc2c1nc(Cl)n2C1OC(CO)C(O)C1O (stereo unspecified)
inactive: [4] 100 % of control | [5] 92 % of control | [6] 96 % of control

O=S(=O)(Nc1ccc(O)c(Cl)c1)c1ccccc1
inactive: [7] 100 % of control | [8] 103 % of control | dose: 400.0 mg/kg/injection, schedule: Q01DX009 (ip), vehicle: saline with Tween-80 95 % of control

CCOC(=O)c1ccc(N=NN(CCF)CCF)cc1
inactive: dose: 10.0 mg/kg/injection, schedule: Q01DX Z (ip), vehicle: saline 95 % of control | dose: 30.0 mg/kg/injection, schedule: Q01DX Z (ip), vehicle: saline 94 % of control | dose: 100.0 mg/kg/injection, schedule: Q01DX Z (ip), vehicle: saline 89 % of control | dose: 300.0 mg/kg/injection, schedule: Q01DX Z (ip), vehicle: saline 95 % of control

O=C(COc1ccccc1)Oc1c(Cl)cc(Cl)cc1Cl
inactive: [3] 98 % of control | [9] 100 % of control | [10] 100 % of control

O=C1C(=O)c2ccccc2-c2ccccc21
inactive: [2] 98 % of control | [3] 97 % of control | [9] 98 % of control

N=c1ccn(C(=O)C2=Cc3cc(Cl)ccc3OC2)cc1
inactive: [7] 92 % of control | [8] 102 % of control

COC(=O)C1C2CCC3C2C(C)(C)CCCC31C (stereo unspecified)
inactive: [3] 98 % of control | [9] 106 % of control | [10] 103 % of control

COC1OC(CN2C(=O)c3ccccc3C2=O)C2OC(C)(C)OC12 (stereo unspecified)
inactive: [11] 106 % of control | [12] 97 % of control | [13] 96 % of control

CC1CC[N-]CC1.CC1CC[N-]CC1.CC1CC[N-]CC1.[Cl][Cr]([Cl])[Cl]
inactive: dose: 100.0 mg/kg/injection, schedule: Q04DX003 (ip), vehicle: other 98 % of control | dose: 200.0 mg/kg/injection, schedule: Q04DX003 (ip), vehicle: other 95 % of control | dose: 400.0 mg/kg/injection, schedule: Q04DX003 (ip), vehicle: other 97 % of control

CCN(CC)c1ccc(/C=N/Nc2nnc(N/N=C/c3ccc(N(CC)CC)cc3)c3ccccc23)cc1
inactive: [14] 94 % of control | [4] 92 % of control | [5] 105 % of control

N#Cc1ccc(-c2ccc(C#N)cc2Br)c(Br)c1
inactive: [15] 93 % of control | [3] 94 % of control | [16] 93 % of control | [9] 95 % of control | [17] 88 % of control | [10] 96 % of control

N#Cc1c(Br)n(C2OC(CO)C(O)C2O)c2ncnc(N)c12 (stereo unspecified)
inactive: [4] 123 % of control | dose: 178.0 mg/kg/injection, schedule: Q01DX001 (ip), vehicle: saline 104 % of control and 115 % of control | dose: 267.0 mg/kg/injection, schedule: Q01DX001 (ip), vehicle: saline 110 % of control and 117 % of control | [6] 112 % of control and 121 % of control | dose: 600.0 mg/kg/injection, schedule: Q01DX001 (ip), vehicle: saline 114 % of control

O=[N+]([O-])c1ccc2[nH]c(O)c(N=Nc3ccccc3[N+](=O)[O-])c2c1
inactive: [4] 98 % of control | [5] 96 % of control | [6] 105 % of control

C(=C/c1ccnc(/C=C/c2ccccc2)c1)/c1ccccc1
inactive: dose: 25.0 mg/kg/injection, schedule: Q01DX009 (ip), vehicle: acetone 97 % of control and 99 % of control | dose: 50.0 mg/kg/injection, schedule: Q01DX009 (ip), vehicle: acetone 87 % of control | [4] 91 % of control | dose: 100.0 mg/kg/injection, schedule: Q01DX009 (ip), vehicle: acetone 89 % of control and 92 % of control | dose: 100.0 mg/kg/injection, schedule: Q04DX003 (ip), vehicle: acetone 94 % of control | [5] 94 % of control | dose: 200.0 mg/kg/injection, schedule: Q04DX003 (ip), vehicle: acetone 86 % of control | [6] 94 % of control

Cc1ccc([N+](=O)[O-])cc1NC(=O)NCc1cccnc1
inactive: [15] 95 % of control | [16] 87 % of control | [17] 92 % of control

COC1OC(COS(C)(=O)=O)C(OS(C)(=O)=O)C(OC(=O)c2ccccc2)C1OC(=O)c1ccccc1 (stereo unspecified)
inactive: [18] 109 % of control | [19] 101 % of control | [20] 101 % of control

NC1CCC(CC23CC4CC(CC(C4)C2)C3)CC1 (stereo unspecified)
inactive: [1] 110 % of control | [2] 102 % of control | [3] 94 % of control and 101 % of control

O=C1CCC(=O)N1c1ccc([I+]c2ccc(N3C(=O)CCC3=O)cc2)cc1
inactive: [14] 103 % of control | [4] 103 % of control | [5] 105 % of control | [6] 103 % of control

O=C1NC(=O)C(C2CCCCC2)(C2CCCCC2)N1
inactive: dose: 100.0 mg/kg/injection, schedule: Q01DX009 (ip), vehicle: saline 103 % of control | [11] 107 % of control | dose: 200.0 mg/kg/injection, schedule: Q01DX009 (ip), vehicle: saline 94 % of control | [12] 107 % of control | dose: 400.0 mg/kg/injection, schedule: Q01DX009 (ip), vehicle: saline 88 % of control | [13] 93 % of control

OCC1CC(n2cnc3c(NO)ncnc32)C(O)C1O (stereo unspecified)
inactive: dose: 25.0 mg/kg/injection, schedule: Q01DX009 (ip), vehicle: saline with Tween-80 103 % of control | dose: 50.0 mg/kg/injection, schedule: Q01DX009 (ip), vehicle: saline with Tween-80 92 % of control | dose: 75.0 mg/kg/injection, schedule: Q01DX009 (ip), vehicle: saline with Tween-80 86 % of control

CCOC(=O)/C=C/SCCCC(=O)O
inactive: [7] 96 % of control | [8] 88 % of control

COC(=O)C(=O)c1c(O)n(-c2ccccc2)c2ccccc12
inactive: [1] 101 % of control | [2] 101 % of control | [3] 98 % of control

O=C(Nc1nccs1)c1cccc(F)c1
inactive: [15] 104 % of control | [16] 110 % of control | [17] 112 % of control

O=C(Nc1ccc(Br)cc1)c1cc(Br)cc(Br)c1O
inactive: dose: 1.56 mg/kg/injection, schedule: Q04DX002 (ip), vehicle: saline 100 % of control | dose: 3.12 mg/kg/injection, schedule: Q04DX002 (ip), vehicle: saline 100 % of control | dose: 6.25 mg/kg/injection, schedule: Q04DX002 (ip), vehicle: saline 97 % of control | dose: 12.5 mg/kg/injection, schedule: Q04DX002 (ip), vehicle: saline 103 % of control and 107 % of control | dose: 25.0 mg/kg/injection, schedule: Q04DX002 (ip), vehicle: saline 104 % of control and 89 % of control

O=[N+]([O-])c1ccccc1S/N=C/c1ccccc1O
inactive: [18] 94 % of control | [19] 94 % of control | [20] 105 % of control
